Source: patent US9040578B2, “Continuous administration of L-dopa, dopa decarboxylase inhibitors, catechol-O-methyl transferase inhibitors and compositions for same” (Neuroderm, Ltd., priority 2010, dated 2015)

Legend:
[1] = cited from earlier work; for Solubility: in words; for pH compatibility: check mark
[2] = Histological score of subcutaneous toxicity after 24 h continuous SC LD/CD; format: in vivo, Pigs; details: 0.2% added to LD/CD 5.4/1.5% + 1% ascorbate
[3] = molecular target: T1, Tyrosinase (Homo sapiens, UniProt P14679); details: tyrosinase inhibitor; cited from earlier work
T1 sequence (P14679 19-529): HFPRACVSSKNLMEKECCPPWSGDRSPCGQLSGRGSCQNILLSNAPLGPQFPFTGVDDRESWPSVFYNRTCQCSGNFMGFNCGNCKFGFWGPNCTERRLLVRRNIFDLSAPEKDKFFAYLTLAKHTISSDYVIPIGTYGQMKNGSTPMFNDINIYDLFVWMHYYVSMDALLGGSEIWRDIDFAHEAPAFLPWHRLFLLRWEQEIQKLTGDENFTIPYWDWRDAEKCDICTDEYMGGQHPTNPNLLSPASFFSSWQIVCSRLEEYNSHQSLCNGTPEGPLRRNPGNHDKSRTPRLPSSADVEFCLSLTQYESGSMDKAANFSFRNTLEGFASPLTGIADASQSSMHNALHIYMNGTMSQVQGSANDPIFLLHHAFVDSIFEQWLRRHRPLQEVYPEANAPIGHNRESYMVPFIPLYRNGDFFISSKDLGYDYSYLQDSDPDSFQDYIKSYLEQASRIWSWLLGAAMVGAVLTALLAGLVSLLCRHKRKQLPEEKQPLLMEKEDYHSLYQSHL

[4] = Chemical stability of levodopa formulations with carbidopa (Tables F, G); format: physicochemical; details: Table F
Protocol: The effect of carbidopa on levodopa formulations was investigated. Levodopa (LD) formulations were prepared with 0, 0.5, 1, 1.5 & 2% by weight carbidopa (CD) and a constant concentration of arginine.
In an additional experiment, LD formulations were prepared with 0, 0.5, 1 & 2% CD and respective concentrations of arginine.

[5] = Colour formation of levodopa/arginine solutions in vitro (FIG. 1A); format: physicochemical
Protocol: FIG. 1 depicts the effect of carbidopa on the stability of levodopa In Vitro and Ex Vivo: A. 6% weight levodopa and arginine solution with various concentrations (2, 1.5, 1, 0.5%) of carbidopa or no carbidopa were tested for physical stability in vitro. […] B. 7% weight percent levodopa and arginine solution, with or without 2% carbidopa by weight, continuously administered in to the subcutaneous tissue of a 5×5 cm fresh, full-thickness pig skin.
In the absence of air (with N2 in the head space) 0.5% CD was sufficient to inhibit this color formation.

[6] = Stability of carbidopa formulations with levodopa (Table H); format: physicochemical
Source text: The effect of levodopa on the stability of carbidopa was investigated. Table H indicates results.

[7] = Titration with acetic or lactic acid: pH and physical stability (Table D); format: physicochemical

Structure (SMILES): Cn1cc[nH]c1=S [Methimazole]
- Solubility [1]: Soluble

Structure (SMILES): CC(C)(S)[C@@H](N)C(=O)O [DPA (D-penicillamine), D-penicillamine]
- Solubility [1]: Soluble

Structure (SMILES): O=C([O-])CN(CCN(CC(=O)[O-])CC(=O)O)CC(=O)O.[Na+].[Na+] [EDTA disodium]
- pH compatibility [1]: √

Structure (SMILES): O=C(O)[C@@H](S)[C@@H](S)C(=O)O [DMSA (succimer)]
- Solubility [1]: Soluble

Structure (SMILES): O=C([O-])CN(CCN(CC(=O)[O-])CC(=O)[O-])CC(=O)[O-].[Ca+2].[Na+].[Na+] [EDTA calcium disodium]
- protection from local toxicity compared to 1% ascorbate alone [2]: did not have a supplementary effect
- pH compatibility [1]: √

Structure (SMILES): N[C@@H](CS)C(=O)O [L-Cysteine]
- Solubility [1]: Soluble

Structure (SMILES): C[C@H](CS)C(=O)N1CCC[C@H]1C(=O)O [Captopril]
- protection from local toxicity compared to 1% ascorbate alone [2]: did not have a supplementary effect
- Solubility [1]: Soluble
- Min required concentration [3]: 0.04 mg/mL

Structure (SMILES): C[C@@](Cc1ccc(O)c(O)c1)(NN)C(=O)O [carbidopa]
- effect on the chemical stability of levodopa [4]: does not have a significant effect
- dark yellow color formation ([5]; 6% levodopa/arginine solution, in the presence of air, dose related): prevented dark yellow color formation
- carbidopa concentration sufficient to inhibit color formation ([5]; absence of air (N2 in the head space)): 0.5%
- sensitivity of CD to oxidation and degradation [6]: more stable in the presence of LD

Structure (SMILES): O=C1O[C@H]([C@@H](O)CO)C(O)=C1O [Ascorbic acid]
- reduction of pH as compared to Na-ascorbate [7]: 0.1-0.15 units
